“Also recorded” adds a separate entry of the source.
Tested on: kmt2d+/−×kmt2d+/− progeny
Test: Neural differentiation (sox2/huc staining) in stable kmt2d mutant
Format: in vivo, zebrafish
Settings: 100 mM dmDf, 2 dpf
Description: FIG. 12: Treatment with dmDf rescues the defects of stable kmt2d mutant. kmt2d+/− adults were in-crossed and the embryos were then collected at 1 dpf, 2 dpf and 5 dpf to assess dmDf efficacy. […] Error bars show SEM (standard error of the mean).
Although the small molecule testing data in CRISPR F0 mosaic models are consistent with morphant phenotypes (and rescue), experiments recognized the necessity of testing the potential efficacy of dmDf in a stable genetic model that is a better genotypic proxy to human patients. […] In addition to examining proliferation of cells in the brain, experiments assessed whether neural differentiation is affected (see, Van Laarhoven, P. M. et al. Hum Mol Genet 24, 4443-53 (2015)).
For convergence and extension (CE) phenotyping, embryos were scored as described (see, Leitch, C. C. et al. Nat Genet 40, 443-8 (2008)) at the 8-10 somite stage, and images were captured using an AZ100 microscope and NIS Elements software (Nikon). […] The distance between Meckel's (MK) and ceratohyal (CH) cartilages was measured on ventral bright field images with Image J (NIH). […] Fluorescence signal on embryo heads was imaged with the Nikon AZ100 microscope and DS-Qi1MC digital camera using […] Z-stacks to generate extended depth of focus images. Cell numbers were quantified using the ImageJ ICTN plugin (NIH). […]

## CC(C)c1nc(-c2cccc(NS(=O)(=O)c3c(F)cccc3F)c2F)c(-c2ccnc(N)n2)s1 [Compound 8, desmethyl-Dabrafenib]
  perturbed differentiation (organization of sox2+ and huc+ cells): appears to ameliorate; also recorded: attenuated this pathology

— patent publication US20210196714A1, “COMPOSITIONS AND METHODS FOR TREATING DISORDERS CHARACTERIZED WITH ABERRANT RAS/MAPK SIGNALING” (Duke University, priority 2018, published 2021)
